The nature of assay [1]: Inhibition of Plasmodium falciparum recombinant M17 leucyl aminopeptidase expressed in Escherichia coli assessed as conversion of L-leucine-7-amido-4-methylcoumarin hydrochloride to NHMec preincubated for 10 mins prior to substrate addition by Dixon plot analysis.
Assay [2] is described as follows: Inhibition of Plasmodium falciparum recombinant M1 aminopeptidase expressed in Escherichia coli assessed as conversion of L-leucine-7-amido-4-methylcoumarin hydrochloride to NHMec preincubated for 10 mins prior to substrate addition by Dixon plot analysis.

Our source for the Ki values is ChEMBL document CHEMBL2384899, “Synthesis and structure-activity relationships of phosphonic arginine mimetics as inhibitors of the M1 and M17 aminopeptidases from Plasmodium falciparum” (J Med Chem, 2013).

As for `N=C(N)Nc1cccc(C(N)P(=O)(O)O)c1` (stereo unspecified), the Ki in assay [1] was 0.16 µM; in assay [2] it was above 1000 µM.

`N=C(N)NCCCCC(N)P(=O)(O)O` (stereo unspecified): the Ki came to 268 µM in assay [1] and 11 µM in assay [2].

For `NCCCC(N)P(=O)(O)O` (stereo unspecified), the Ki in assay [1] and in assay [2] was above 1000 µM in each case.

Take `N=C(N)Nc1ccc(CC(N)P(=O)(O)O)cc1` (stereo unspecified): the Ki in assay [1] is 63 µM; in assay [2], above 1000 µM.

As for `N=C(N)Nc1ccc(C(N)P(=O)(O)O)cc1` (stereo unspecified), the results for the Ki in assay [1] and in assay [2] were 1.8 µM and 127 µM, respectively.

As to `NC(c1ccc(-n2cccn2)cc1)P(=O)(O)O` (stereo unspecified), the Ki in assay [1] was 0.011 µM; in assay [2], 104 µM.

With `N=C(N)c1ccc(C(N)P(=O)(O)O)cc1` (stereo unspecified), the Ki in assay [1] was above 1000 µM; in assay [2] it was 345 µM.

As to `NC(N)=NCCCC(N)P(=O)(O)O` (stereo unspecified), the Ki was above 1000 µM in assay [1] and 193 µM in assay [2].
